Source: US20220218852A1, “NOVEL RADIOLABELLED CXCR4-TARGETING COMPOUNDS FOR DIAGNOSIS AND THERAPY” (PROVINCIAL HEALTH SERVICES AUTHORITY, priority 2019, published 2022)
Read-outs that look alike come from different tables or passages of the source. Positions of bridges follow the written chain, without caps; N, C: chain ends. Non-standard residues stand in square brackets, D forms with d. Residues, ends and D or L forms follow the SMILES beside them. Groups on a side chain read outwards from the residue. Chains are numbered I, II in the order given. *: point of attachment. X5 = C[N+](C)(Cc1cn(CC(=O)*)nn1)C[B-](F)(F)F; 2Nal = N[C@@H](Cc1ccc2ccccc2c1)C(=O)O; X3 = C[N+](C)(CCCC(=O)*)C[B-](F)(F)F; Lys(iPr) = CC(C)NCCCC[C@H](N)C(=O)O

Key:
CXCR4 [1] = target: T1, CXCR4 (Homo sapiens, UniProt P61073); assay: Competition binding assay ([^125I]SDF-1α, CHO:CXCR4 cells); details: competitive binding vs [^125I]SDF-1α, read-out: IC50 (nM), binding affinity for CXCR4
T1 construct: expressed in transfected cells; host or cells: CHO:CXCR4 cells (gift from NIH); CHO:WT used as the control line
Experimental: The binding affinities of nonlabelled peptides for CXCR4 were determined using a competition binding assay using the CHO:CXCR4 cells. Briefly, CHO:CXCR4 cells (200,000 cells/well) were plated in a 24-well BioCoat™ Poly-D-Lysine Multiwell Plates (Corning) the previous night. The next day, each well was incubated with RPMI-1640 medium (Life Technologies Corporations) supplemented with 20 mM HEPES and 2 mg/mL BSA, [^125I]SDF-1α (0.01 nM, Perkin Elmer) and competing non-radioactive ligands ([…]) and incubated for 1-1.5 hours at 27° C. with moderate shaking. After incubation, the cells were washed with ice-cold PBS twice, trypsinized and counted on a Perkin Elmer WIZARD 2480 gamma counter. IC50 values were determined by a nonlinear regression analysis to fit a logistic equation to the competition data using GraphPad Prism 7.

CXCR4 [2] = target: T1, CXCR4; details: Peng et al. 2015; read-out: IC50, block SDF-1a binding to CXCR4; cited from earlier work

T1 sequence (P61073 whole entry): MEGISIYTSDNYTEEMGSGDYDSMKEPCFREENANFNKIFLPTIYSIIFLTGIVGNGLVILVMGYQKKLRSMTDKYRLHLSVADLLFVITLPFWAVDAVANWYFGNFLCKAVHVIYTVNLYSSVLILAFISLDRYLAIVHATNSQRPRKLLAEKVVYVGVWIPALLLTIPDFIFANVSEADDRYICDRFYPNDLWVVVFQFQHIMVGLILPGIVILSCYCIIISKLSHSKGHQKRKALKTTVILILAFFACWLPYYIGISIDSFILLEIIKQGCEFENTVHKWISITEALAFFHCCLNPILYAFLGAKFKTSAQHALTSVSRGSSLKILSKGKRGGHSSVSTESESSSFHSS

Row | Molecule | IC50 (CXCR4 [1]) [nM] | IC50 (CXCR4 [2]) [nM]
1 | CC(C)NCCCC[C@@H]1NC(=O)[C@H](Cc2ccc(O)cc2)NC(=O)[C@H](Cc2ccccc2)NC(=O)CC[C@H](C(=O)N[C@@H](CCCCNC(C)C)C(=O)N[C@@H](CCCCNC(=O)[C@H](CCC(=O)O)NC(=O)[C@H](CCC(=O)O)NC(=O)[C@H](CCC(=O)O)NC(=O)[C@H](CCCCNC(=O)[C@H](CCC(=O)O)NC(=O)Cn2cc(C[N+](C)(C)C[B-](F)(F)F)nn2)NC(=O)[C@H](CCC(=O)O)NC(=O)Cn2cc(C[N+](C)(C)C[B-](F)(F)F)nn2)C(N)=O)NC(=O)CNC(=O)[C@H](Cc2ccc3ccccc3c2)NC(=O)[C@@H](CCCNC(=N)N)NC1=O [BL04] (I: FY[Lys(iPr)][dR][2Nal]G[dE][Lys(iPr)]K-NH2 / II: X5-EK([Glu-X5])EEE; amide I:9-II:C; lactam I:N-I:7) | 63 ± 9 | –
2 | CC(C)NCCCC[C@@H]1NC(=O)[C@H](Cc2ccc(O)cc2)NC(=O)[C@H](Cc2ccccc2)NC(=O)CC[C@H](C(=O)N[C@@H](CCCCNC(C)C)C(=O)N[C@@H](CCCCNC(=O)[C@H](CCC(=O)O)NC(=O)[C@H](CCC(=O)O)NC(=O)[C@H](CCC(=O)O)NC(=O)CCC[N+](C)(C)C[B-](F)(F)F)C(N)=O)NC(=O)CNC(=O)[C@H](Cc2ccc3ccccc3c2)NC(=O)[C@@H](CCCNC(=N)N)NC1=O [BL08] (FY[Lys(iPr)][dR][2Nal]G[dE][Lys(iPr)]K([Glu-Glu-Glu-X3])-NH2; lactam N-7) | 11.6 ± 7 | –
3 | CC(C)NCCCC[C@@H]1NC(=O)[C@H](Cc2ccc(O)cc2)NC(=O)[C@H](Cc2ccccc2)NC(=O)CC[C@H](C(=O)N[C@@H](CCCCNC(C)C)C(=O)N[C@@H](CCCCNC(=O)[C@H](CCC(=O)O)NC(=O)[C@H](CCC(=O)O)NC(=O)[C@H](CCC(=O)O)NC(=O)Cn2cc(C[N+](C)(C)C[B-](F)(F)F)nn2)C(N)=O)NC(=O)CNC(=O)[C@H](Cc2ccc3ccccc3c2)NC(=O)[C@@H](CCCNC(=N)N)NC1=O [BL09] (FY[Lys(iPr)][dR][2Nal]G[dE][Lys(iPr)]K([Glu-Glu-Glu-X5])-NH2; lactam N-7) | 13.4 ± 2.3 | –
4 | cyclo[Phe-Tyr-Lys(iPr)-D-Arg-2-NaI-Gly-D-Glu]-Lys(iPr)-NH2 [LY2510924] | – | 0.079
